In patent publication US10266544B2, “Aryl substituted aminomethyl spectinomycin analogs as antibacterial agents” (ST. JUDE CHILDREN'S RESEARCH HOSPITAL, INC., priority 2013, dated 2019):
Counter-ions that a name gives are not always drawn. Like-named read-outs stand apart in the source and are kept apart here.

How the values were obtained:
Format in all cases: cell-based
[1] = system: Proteus vulgaris (ATCC 33420); test: MIC determination, microbroth dilution; conditions: ATCC33420
[2] = system: Klebsiella pneumoniae (ATCC 33495); test: MIC determination, microbroth dilution; conditions: ATCC33495
[3] = system: Bacillus anthracis, Sterne 34F2; test: microbe, parasite or virus in culture; conditions: STERNE34F2, read-out: MIC B.a.
[4] = system: E. coli K12 ΔtolC; test: microbe, parasite or virus in culture; conditions: Escherichia coli, read-out: MIC E.c. Δtolc
[5] = system: Pseudomonas aeruginosa (PA01); test: MIC determination, microbroth dilution
[6] = system: Neisseria gonorrhoeae (ATCC 49226); test: Disc diffusion assay; conditions: ATCC49226, 4 μg per disc, read-out: Zone of inhibition N.g.
[7] = system: Staphylococcus aureus (ATCC 29213); test: MIC determination, microbroth dilution; conditions: ATCC29213; Staphylococcus aureus (ATCC 29213); read-out: MIC S.a.
[8] = system: Listeria monocytogenes; test: MIC determination (Table 6)
[9] = system: Bacillus subtilis (ATCC 23857); test: MIC determination, microbroth dilution; conditions: ATCC23857; Bacillus subtilis (ATCC 23857); read-out: MIC B.s.
[10] = system: Streptococcus pyogenes (ATCC 700294); test: MIC determination, microbroth dilution; conditions: ATCC700294; Streptococcus pyogenes (ATCC 700294); read-out: MIC S. py.
[11] = system: MRSA, Staphylococcus aureus (NRS70); test: MIC determination, microbroth dilution; conditions: Staphylococcus aureus (NRS70); read-out: MIC MRSA
[12] = system: Legionella pneumophila (ATCC 33153); test: microbe, parasite or virus in culture; conditions: ATCC33153, 72 h, read-out: Zone of inhibition L.p.
[13] = system: Streptococcus pneumoniae (R6); test: MIC determination, microbroth dilution; conditions: Streptococcus pneumoniae (R6); read-out: MIC S. pn.
[14] = system: Haemophilus influenza (ATCC 49247); test: microbe, parasite or virus in culture; conditions: ATCC49247; Haemophilus influenza; 4 μg per disc; range of at least two experiments; read-out: Zone of inhibition H.i.
[15] = system: acinetobacter baumannii (ATCC 19606); test: MIC determination, microbroth dilution; conditions: ATCC19606
[16] = system: Bacillus anthracis; test: microbe, parasite or virus in culture; conditions: read-out: MIC B.a.
[17] = system: Escherichia coli (ATCC 700926); test: MIC determination, microbroth dilution; conditions: ATCC700926; Escherichia coli (ATCC 700926); read-out: MIC E.c.
Method: MICs were determined using the microbroth dilution method according to Clinical Laboratory Standards Institute (CLSI; National, C. F. C. L. S., Methods for Dilution Antimicrobial Susceptibility Tests for Bacteria Grow aerobically-Seventh Edition: Approved Standard M7-A7, CLSI, Wayne, Pa., USA, 2008) and were read by visual inspection. Two fold serial dilutions of antibiotic in 100 μL of the appropriate broth media were first prepared in 96-well round bottom microtiter plates (Nalge Nunc International, Rochester, N.Y., USA). An equivalent volume (100 μL) of bacterial broth inocula containing approximately 10^5 bacterial cfu/mL was added to each well to give final concentrations of drug starting at 200 μg/mL and the plates were incubated aerobically at 37° C. M. tuberculosis microtiter plates were incubated for 7 days and all other strains were incubated overnight. After incubations, in all cases the MIC was recorded as the lowest concentration of drug that prevented bacterial growth.

[18] = system: Neisseria meningitides (ATCC 13077); test: Disc diffusion assay; conditions: ATCC13077, 4 μg per disc, read-out: Zone of inhibition N.m.
[19] = system: Moraxella catarrhalis; test: MIC determination (Table 6)
[20] = system: M. tuberculosis clinical isolates; test: microbe, parasite or virus in culture; conditions: Mycobacterium tuberculosis
[21] = system: Burkholderia cepacia (ATCC 25416); test: MIC determination, microbroth dilution; conditions: Burkholderia cepacia
[22] = system: Proteus mirabilis (ATCC 25933); test: MIC determination, microbroth dilution; conditions: ATCC25933
[23] = system: Stenotrophomonas maltophilia (ATCC 13637); test: MIC determination, microbroth dilution; conditions: ATCC13637; Stenotrophomonas maltophilia (ATCC 13637); read-out: MIC S.m.
[24] = ATCC25416, read-out: MIC B.c., Burkholderia cepacia (ATCC 25416)
[25] = ATCC25416, read-out: MIC B.c., Burkholderia cepacia, Table 6

Structure (SMILES) | MIC [1] [µg/mL] | MIC [2] [µg/mL] | MIC [3] [µg/mL] | MIC [4] [µg/mL] | MIC [5] [µg/mL] | MIC [7] [µg/mL] | MIC [8] [µg/mL] | MIC [9] [µg/mL] | MIC [10] [µg/mL] | MIC [11] [µg/mL] | MIC [13] [µg/mL] | MIC [15] [µg/mL] | MIC [16] [µg/mL] | MIC [17] [µg/mL] | MIC [19] [µg/mL] | MIC ([20]; H37RV, read-out: MIC H37Rv) [µg/mL] | MIC ([20]; read-out: MIC TN022) [µg/mL] | MIC ([20]; read-out: MIC TN026) [µg/mL] | MIC [21, 24] [µg/mL] | MIC [21, 25] [µg/mL] | also measured
CN[C@@H]1[C@H](O)[C@H](NC)[C@H]2O[C@]3(O)[C@H](O[C@@H]2[C@H]1O)O[C@H](C)C[C@@]3(O)CNCCc1ccc(C(F)(F)F)cc1 [compound 58, 3′-(R)-3′[(4-trifluoromethyl)phenethylaminomethyl]dihydrospectinomycin Trihydrochloride] | 200 | > 200 | 12.5 to 25 | 1.6 | > 200 | 12.5 | 3.1 | 6.3 | 1.6 to 3.1 | 50 to 100 | 1.6 to 3.1 | > 200 | 12.5 to 25 | 6.3 to 12.5 | 0.4 | 3.1 | 3.1 | 6.3 | > 200 | > 200 | zone of inhibition at 4 µg/disc [6]: 19 mm; zone of inhibition at 4 µg/disc [12]: 26 mm; zone of inhibition at 4 µg/disc [14]: 19 mm; zone of inhibition at 4 µg/disc [18]: 16 mm; MIC [22]: 200 µg/mL
CN[C@@H]1[C@H](O)[C@H](NC)[C@H]2O[C@]3(O)[C@H](O[C@@H]2[C@H]1O)O[C@H](C)C[C@@]3(O)CNCCc1cccnc1 [compound 59, 3′-(R)-3′-[((2-(pyridin-3-yl)ethyl)aminomethyl]dihydrospectinomycintetrahydrobromide] | – | 100 | 50 | – | – | 100 | 12.5 | 12.5 to 25 | – | > 200 | – | > 200 | 50 | – | 3.1 | 6.3 | 6.3 | 6.3 | > 200 | > 200 | –
CN[C@@H]1[C@H](O)[C@H](NC)[C@H]2O[C@]3(O)[C@H](O[C@@H]2[C@H]1O)O[C@H](C)C[C@@]3(O)CNCCc1cnccn1 [compound 60, 3′-(R)-3′-[((2-(pyrazin-2-yl)ethyl)aminomethyl]dihydrospectinomycintetrahydrobromide] | > 200 | 100 to 200 | 100 | 50 | > 200 | 200 | 25 | 50 to 100 | 50 | > 200 | 25 | > 200 | 100 | 100 | 6.3 | 3.1 | 6.3 | 6.3 | > 200 | > 200 | MIC [23]: 25 µg/mL; MIC [22]: > 200 µg/mL
CN[C@@H]1[C@H](O)[C@H](NC)[C@H]2O[C@]3(O)[C@H](O[C@@H]2[C@H]1O)O[C@H](C)C[C@@]3(O)CNCCc1ccncc1 [compound 63, 3′-(R)-3′-[((2-(pyridin-4-yl)ethyl)aminomethyl]dihydrospectinomycintetrahydrobromide] | – | > 200 | > 200 | – | – | > 200 | 100 | – | – | > 200 | – | > 200 | > 200 | – | 12.5 | 25 | 25 | 25 | > 200 | > 200 | –
